Key:
[1] = test system: yeast heterozygous and homozygous deletion strains; test: HIP/HOP chemogenomic fitness profiling; format: cell-based; settings: for Chemogenomic response signature induced: HIPHOP profile
neo1Δ/NEO1 strain = test: Growth of the neo1Δ/NEO1 strain; format: cell-based, yeast; settings: OD600 for 24 hours
[2] = test system: immortalized human leukemia cells; test: Mitochondrial effects in immortalized human leukemia cells; format: cell-based; settings: fig. S13

**Q.** With `COC(=O)Nc1nc2ccc(C(=O)c3cccs3)cc2[nH]1` [nocodazole] as the compound, how does the “Chemogenomic response signature induced” value [1] read?
**A.** The value was “induced a signature containing tubulin biogenesis and SWR1 complex genes”.

**Q.** For `CCCCNC(=O)n1c(NC(=O)OC)nc2ccccc21` [benomyl], which “Chemogenomic response signature induced” value [1] is on record?
**A.** The value was “induced a signature containing tubulin biogenesis and SWR1 complex genes”.

**Q.** Which “Induction of NEO1 haploinsufficiency” value (neo1Δ/NEO1 strain) does the source give for `CC/C(=C(\c1ccccc1)c1ccc(OCCN(C)C)cc1)c1ccccc1` [Tamoxifen] here?
**A.** Its value is “Tamoxifen-induced NEO1 haploinsufficiency”.

**Q.** `CO/C1=C\C(C)=C\[C@@H](C)[C@@H](O)[C@@H](C)C/C(C)=C/C=C/[C@H](OC)[C@@H]([C@@H](C)[C@@H](O)[C@H](C)[C@@]2(O)C[C@@H](O)[C@H](C)[C@@H](C(C)C)O2)OC1=O` [bafilomycin A] was tested. Which “Effect on tamoxifen-induced NEO1 haploinsufficiency” value (neo1Δ/NEO1 strain) did it give?
**A.** Its value is “rescued”.

**Q.** `Oc1ccc(Cl)cc1Cc1cc(Cl)cc(Cc2cc(Cl)ccc2O)c1O` [trichlorophene] was tested. Which “Chemogenomic response signature induced” value [1] did it give?
**A.** Its value is “induced mitochondrial stress”.

**Q.** And the “Generation of mitochondrial reactive oxygen species” value [2]?
**A.** The value was “increased”.

**Q.** And the Reserve oxygen capacity [2]?
**A.** The Reserve oxygen capacity was “reduction”.

**Q.** `OC(Cn1cncn1)(Cn1cncn1)c1ccc(F)cc1F` [fluconazole] was tested. Which “HIP hit / strain with largest fitness defect” value ([1]; HIP profile) did it give?
**A.** The value was “Erg11Δ/ERG11 strain represents a “hit””.
